Experimental data as given in patent publication US9546401B2, “Assays and methods for selecting a treatment regimen for a subject with depression” (The General Hospital Corporation, priority 2011, dated 2017).
Where two headings read alike, the source gives them in different places.

System: SSRI-resistant outpatients with major depressive disorder (MDD)
Conditions: for Cardiovascular side effects, NNH / Gastrointestinal side effects, NNH / Infectious side effects, NNH / Miscellaneous side effects, NNH / Psychological side effects, NNH / Sexual side effects, NNH / Sleep side effects, NNH / Somatic side effects, NNH: versus placebo
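Note: adverse events recorded at every visit with the SAFTEE-SI in a 60-day double-blind sequential parallel trial of two 30-day phases, visits every 10 days, placebo as comparator.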

Text: The study involved the enrollment of a total of 148 patients with MDD over the course of 12 months across 10 medical centers or hospitals in the United States. […] In accordance with the sequential parallel design [51], the 60-day, double-blind treatment was divided into two phases of 30 days each, with assessments performed every 10 days.

Compound: CN1c2c(nc(N)[nH]c2=O)NC[C@@H]1CNc1ccc(C(=O)N[C@@H](CCC(=O)O)C(=O)O)cc1 [6(S)-5-MTHF, 6(S)-5-methyltetrahydrofolate]
- adverse side effect when administered with an SSRI (Trial 1): does not appear to cause any adverse side effect
- Cardiovascular side effects, Frequency (Trial 1, 7.5 mg + SSRI, n = 94): 0
- Cardiovascular side effects, Frequency (%) (Trial 1, 7.5 mg + SSRI, n = 94): (0%)
- Gastrointestinal side effects, Frequency (Trial 1, 7.5 mg + SSRI, n = 94): 9
- Gastrointestinal side effects, Frequency (%) (Trial 1, 7.5 mg + SSRI, n = 94): (9.6%)
- Infectious side effects, Frequency (Trial 1, 7.5 mg + SSRI, n = 94): 6
- Infectious side effects, Frequency (%) (Trial 1, 7.5 mg + SSRI, n = 94): (6.4%)
- Miscellaneous side effects, Frequency (Trial 1, 7.5 mg + SSRI, n = 94): 1
- Miscellaneous side effects, Frequency (%) (Trial 1, 7.5 mg + SSRI, n = 94): (1.1%)
- Psychological side effects, Frequency (Trial 1, 7.5 mg + SSRI, n = 94): 2
- Psychological side effects, Frequency (%) (Trial 1, 7.5 mg + SSRI, n = 94): (2.1%)
- Sexual side effects, Frequency (Trial 1, 7.5 mg + SSRI, n = 94): 0
- Sexual side effects, Frequency (%) (Trial 1, 7.5 mg + SSRI, n = 94): (0%)
- Sleep side effects, Frequency (Trial 1, 7.5 mg + SSRI, n = 94): 3
- Sleep side effects, Frequency (%) (Trial 1, 7.5 mg + SSRI, n = 94): (3.2%)
- Somatic side effects, Frequency (Trial 1, 7.5 mg + SSRI, n = 94): 9
- Somatic side effects, Frequency (%) (Trial 1, 7.5 mg + SSRI, n = 94): (9.6%)
- Cardiovascular side effects, NNH (Trial 1, 7.5 mg + SSRI): <placebo
- Gastrointestinal side effects, NNH (Trial 1, 7.5 mg + SSRI): <placebo
- Infectious side effects, NNH (Trial 1, 7.5 mg + SSRI): <placebo
- Miscellaneous side effects, NNH (Trial 1, 7.5 mg + SSRI): <placebo
- Psychological side effects, NNH (Trial 1, 7.5 mg + SSRI): <placebo
- Sexual side effects, NNH (Trial 1, 7.5 mg + SSRI): =placebo
- Sleep side effects, NNH (Trial 1, 7.5 mg + SSRI): <placebo
- Somatic side effects, NNH (Trial 1, 7.5 mg + SSRI): <placebo
- Cardiovascular side effects, Frequency (Trial 1, 15 mg + SSRI, n = 30): 2
- Cardiovascular side effects, Frequency (%) (Trial 1, 15 mg + SSRI, n = 30): (6.7%)
- Gastrointestinal side effects, Frequency (Trial 1, 15 mg + SSRI, n = 30): 3
- Gastrointestinal side effects, Frequency (%) (Trial 1, 15 mg + SSRI, n = 30): (10.0%)
- Infectious side effects, Frequency (Trial 1, 15 mg + SSRI, n = 30): 2
- Infectious side effects, Frequency (%) (Trial 1, 15 mg + SSRI, n = 30): (6.7%)
- Miscellaneous side effects, Frequency (Trial 1, 15 mg + SSRI, n = 30): 2
- Miscellaneous side effects, Frequency (%) (Trial 1, 15 mg + SSRI, n = 30): (6.7%)
- Psychological side effects, Frequency (Trial 1, 15 mg + SSRI, n = 30): 2
- Psychological side effects, Frequency (%) (Trial 1, 15 mg + SSRI, n = 30): (6.7%)
- Sexual side effects, Frequency (Trial 1, 15 mg + SSRI, n = 30): 0
- Sexual side effects, Frequency (%) (Trial 1, 15 mg + SSRI, n = 30): (0%)
- Sleep side effects, Frequency (Trial 1, 15 mg + SSRI, n = 30): 2
- Sleep side effects, Frequency (%) (Trial 1, 15 mg + SSRI, n = 30): (6.7%)
- Somatic side effects, Frequency (Trial 1, 15 mg + SSRI, n = 30): 3
- Somatic side effects, Frequency (%) (Trial 1, 15 mg + SSRI, n = 30): (10.0%)
- Cardiovascular side effects, NNH (Trial 1, 15 mg + SSRI): <placebo
- Gastrointestinal side effects, NNH (Trial 1, 15 mg + SSRI): <placebo
- Infectious side effects, NNH (Trial 1, 15 mg + SSRI): <placebo
- Miscellaneous side effects, NNH (Trial 1, 15 mg + SSRI): <placebo
- Psychological side effects, NNH (Trial 1, 15 mg + SSRI): <placebo
- Sexual side effects, NNH (Trial 1, 15 mg + SSRI): =placebo
- Sleep side effects, NNH (Trial 1, 15 mg + SSRI): <placebo
- Somatic side effects, NNH (Trial 1, 15 mg + SSRI): <placebo
